Experimental data taken from patent US20060004070A1, “Fungicidal active substance combinations” (priority 2002, published 2006).

Tests used:
[1] = tested on: Leptosphaeria nodorum; assay: Leptosphaeria nodorum test (wheat)/protective; assay type: in vivo; settings: protective spray, application rate 100 g/ha, evaluation 10 days after inoculation
Protocol: Leptosphaeria nodorum test (wheat)/protective Solvent: 25 parts by weight of N,N-dimethylacetamide Emulsifier: 0.6 part by weight of alkylaryl polyglycol ether To produce a suitable preparation of active compound, 1 part by weight of active compound combination is mixed with the stated amounts of solvent and emulsifier, and the concentrate is diluted with water to the desired concentration. To test for protective activity, young plants are sprayed with the preparation of active compound at the stated application rate. After the spray coating has dried on, the plants are sprayed with a spore suspension of Leptosphaeria nodorum. The plants remain in an incubation cabin at 20° C. and 100% relative atmospheric humidity for 48 hours. The plants are placed in a greenhouse at a temperature of about 15° C. and a relative atmospheric humidity of 80%. Evaluation is carried out 10 days after the inoculation. 0% means an efficacy which corresponds to that of the control, whereas an efficacy of 100% means that no infection is observed.

[2] = tested on: Puccinia recondita; assay: Puccinia test (wheat)/curative; assay type: in vivo; settings: curative spray 48 hours after inoculation, application rate 25 g/ha, evaluation 10 days after inoculation
Protocol: Puccinia test (wheat)/curative
Solvent: 25 parts by weight of N,N-dimethylacetamide
Emulsifier: 0.6 part by weight of alkylaryi polyglycol ether
To produce a suitable preparation of active compound, 1 part by weight of active compound combination is mixed with the stated amounts of solvent and emulsifier, and the concentrate is diluted with water to the desired concentration.
To test for curative activity, young plants are inoculated with a spore suspension of Puccinia recondita in a 0.1% strength aqueous agar solution. 48 hours after the inoculation, the plants are sprayed with the preparation of active compound at the stated application rate.
The plants are placed in a greenhouse at a temperature of about 20° C. and a relative atmospheric humidity of about 80% to promote the development of rust pustules.
Evaluation is carried out 10 days after the inoculation. 0% means an efficacy which corresponds to that of the control, whereas an efficacy of 100% means that no infection is observed.

| SMILES | Efficacy in % [1] [%] | Efficacy in % [2] [%] |
| --- | --- | --- |
| OC(Cc1ccccc1Cl)(Cn1nc[nH]c1=S)C1(Cl)CC1 (stereo not shown) [Ex. (II)] | 56 | 43 |
| CO/N=C(/C(=O)OC)c1ccccc1CO/N=C(\C)c1cccc(C(F)(F)F)c1 [Ex. (I), 2-[α-{[(α-methyl-3-trifluoromethylbenzyl)imino]oxy}-o-tolyl]glyoxylic acid methyl ester O-methyl oxime] | 67 | 0 |
